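Exposure lasted 48 hours, with cells grown in 96-well plates and compounds tested at five concentrations. GI50 = concentration required for 50% inhibition of growth.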 Calls of active or inactive are those of the source. Cut-off read from the data, not from the text of the source: active = GI50 up to about 1.1 µM and inactive = higher.
Legend:
Test in all cases: NCI-60 cell line screen, 48 h
[1] = test system: OVCAR-8
[2] = test system: RPMI-8226
[3] = test system: HOP-92
[4] = test system: K562
[5] = test system: 786-0
[6] = test system: M14
[7] = test system: UACC-257
[8] = test system: SF-539
[9] = test system: Malme-3M
[10] = test system: HL-60
[11] = test system: HCT-116
[12] = test system: A549
[13] = test system: OVCAR-4
[14] = test system: UACC-62
[15] = test system: MDA-MB-435
[16] = test system: MDA-N
[17] = test system: U-251
[18] = test system: DU-145
[19] = test system: MCF7
[20] = test system: MDA-MB-231

Measured: GI50

Nc1ncnc2c1ncn2CC(O)CO (centres undefined)
inactive: [1] > 100 µM | [2] > 100 µM | [3] > 100 µM | [4] > 100 µM | [5] > 100 µM | [6] > 100 µM | [7] > 100 µM | [8] > 100 µM | [9] > 100 µM | [10] > 100 µM | [11] > 100 µM | [12] > 100 µM | [13] > 100 µM | [14] > 100 µM

CC1(C(=O)O)CCC2(C)CCC3(C)C(=CC(=O)C4C5(C)CCC(O)C(C)(C)C5CCC43C)C2C1 (centres undefined)
inactive: [1] 43.8 µM | [2] > 10 µM | [15] 35.6 µM | [16] 38.7 µM | [17] 43.1 µM | [5] 42.1 µM | [6] 36.3 µM | [18] 29.6 µM | [7] 33.9 µM | [8] 17.6 µM | [9] > 100 µM | [10] 24.6 µM | [11] 23.4 µM | [12] 40.3 µM | [19] 50.2 µM | [13] 42.8 µM | [14] 21 µM

N#Cc1cccc(/C=N/C23CC4CC(CC(C4)C2)C3)c1
inactive: [1] > 100 µM | [2] 52.2 µM | [3] > 100 µM | [17] > 100 µM | [4] 38.4 µM | [5] > 100 µM | [6] > 100 µM | [7] > 100 µM | [8] > 100 µM | [9] > 100 µM | [10] 21.3 µM | [11] 57.3 µM | [12] > 100 µM | [13] > 100 µM | [14] > 100 µM

O=C1CCCn2c(nc3ccccc32)N1
inactive: [1] > 100 µM | [2] > 100 µM | [3] > 100 µM | [15] > 100 µM | [20] > 100 µM | [17] > 100 µM | [4] > 100 µM | [5] > 100 µM | [6] > 100 µM | [7] > 100 µM | [8] > 100 µM | [9] > 100 µM | [11] > 100 µM | [12] > 100 µM | [19] > 100 µM | [13] > 100 µM | [14] > 100 µM

COc1cc(/C=C2\CCC(C)(CN(C)C)C2=O)cc(OC)c1OC (centres undefined)
inactive: [1] > 100 µM | [2] 40.8 µM | [3] > 100 µM | [17] > 100 µM | [4] 63.7 µM | [5] > 100 µM | [6] > 100 µM | [7] > 100 µM | [8] > 100 µM | [9] > 100 µM | [10] 1.57 µM | [11] > 79.3 µM | [12] > 100 µM | [13] > 100 µM | [14] 70.5 µM

CS(=O)(=O)c1ccc(C(=O)O[C@@H]2C(=O)N3CC[C@H]4OC(O)[C@@H]2[C@H]43)cc1 (some centres undefined)
inactive: [1] > 100 µM | [2] > 100 µM | [15] > 100 µM | [20] > 100 µM | [17] > 100 µM | [4] > 100 µM | [5] 60.7 µM | [6] > 100 µM | [18] > 100 µM | [7] > 100 µM | [8] > 100 µM | [11] 64.7 µM | [12] > 100 µM | [19] > 100 µM | [13] > 100 µM | [14] > 100 µM

CCCCCCCCCCCCCCCC(=O)OCC1OC(OC)C2NP(=O)(N(CCCl)CCCl)OC1C2O (centres undefined)
inactive: [1] 2.51 µM | [2] 2.51 µM | [15] 7.55 µM | [17] 1.32 µM | [4] 2.36 µM | [6] 4.31 µM | [18] 7.41 µM | [7] 12.1 µM | [9] 14.1 µM | [11] 3.3 µM | [12] 6.11 µM | [13] 8.51 µM | [14] 1.23 µM
active: [3] 0.822 µM | [5] 0.44 µM | [8] 0.887 µM | [10] 0.117 µM | [19] 0.366 µM

COC12CC(O)=C(C(C)=O)C(=O)C1(C)c1c(OC(C)=O)c(C)c(O)c(C(C)=O)c1O2 (centres undefined)
inactive: [1] 10.8 µM | [2] 7.71 µM | [3] 18.4 µM | [17] 9.25 µM | [4] 16.9 µM | [5] 18.9 µM | [6] 22.5 µM | [7] 23.6 µM | [8] 21.6 µM | [9] 17.9 µM | [10] 15.8 µM | [11] 21 µM | [12] 9.44 µM | [13] 18.7 µM | [14] 4.98 µM

CC1=C(C(=O)Nc2ccc([N+](=O)[O-])cc2)C(c2cccc([N+](=O)[O-])c2)C(C(=O)Nc2ccc([N+](=O)[O-])cc2)=C(C)N1
inactive: [1] 17.8 µM | [2] 7.78 µM | [3] 5.31 µM | [17] 9.71 µM | [4] 9.93 µM | [5] 48.2 µM | [6] 24.3 µM | [7] 16 µM | [8] 60.3 µM | [9] 25.2 µM | [10] 16.4 µM | [11] 5.97 µM | [12] 29.7 µM | [13] 48.6 µM | [14] 5.28 µM

CC(C)(C)C1CCC2(CC1)c1[nH]c3ccccc3c1C1(CCC(C(C)(C)C)CC1)c1[nH]c3ccccc3c12 (centres undefined)
inactive: [1] > 100 µM | [2] > 100 µM | [3] > 100 µM | [17] 87.3 µM | [4] > 100 µM | [5] 7.08 µM | [6] > 100 µM | [7] > 100 µM | [8] > 100 µM | [9] > 100 µM | [10] > 100 µM | [11] 41.6 µM | [12] > 100 µM | [13] > 100 µM | [14] > 100 µM

CC(C)=C1C(=O)C[C@]2(C)C[C@H]3/C(=C(/C)CCC12)CC[C@@]3(C)O (some centres undefined)
inactive: [1] > 50 µM | [2] > 50 µM | [3] > 50 µM | [15] > 50 µM | [20] > 50 µM | [17] > 50 µM | [4] 22.2 µM | [5] > 50 µM | [6] > 50 µM | [18] > 50 µM | [7] > 50 µM | [8] > 50 µM | [10] 11.3 µM | [11] 46.2 µM | [12] > 50 µM | [19] > 50 µM | [13] > 50 µM | [14] > 50 µM

COC(=O)C1=C(C)N(NC(N)=O)C2(N)N(NC(N)=O)C(C)=C(C(=O)OC)C12C#N (centres undefined)
inactive: [1] > 100 µM | [2] > 100 µM | [3] > 100 µM | [17] > 100 µM | [4] > 100 µM | [5] > 100 µM | [6] > 100 µM | [7] > 100 µM | [8] > 100 µM | [9] > 100 µM | [10] > 100 µM | [11] > 100 µM | [12] > 100 µM | [13] > 100 µM | [14] > 100 µM

O/N=C1/COC(C(F)(F)F)(C(F)(F)F)C1
inactive: [1] > 100 µM | [2] > 100 µM | [3] > 100 µM | [15] > 100 µM | [20] > 100 µM | [17] > 100 µM | [5] > 100 µM | [6] > 100 µM | [18] > 100 µM | [7] > 100 µM | [8] > 100 µM | [9] > 100 µM | [11] > 100 µM | [12] > 100 µM | [19] > 100 µM | [13] > 100 µM | [14] > 100 µM

COc1cc(NC(C)=O)ccc1C(=O)N/N=C/c1ccco1
inactive: [1] > 100 µM | [2] 77.6 µM | [3] > 100 µM | [15] > 100 µM | [16] > 100 µM | [4] > 100 µM | [5] > 100 µM | [6] > 100 µM | [18] > 100 µM | [8] 44.2 µM | [9] > 100 µM | [10] 46.5 µM | [11] > 100 µM | [12] > 100 µM | [19] 52.2 µM | [13] > 100 µM | [14] > 100 µM

C1CCN(C2OC3C(COC3N3CCCCC3)OC2OC2CCO[C@@H]2N2CCCCC2)CC1 (some centres undefined)
inactive: [1] 17.5 µM | [2] 17.9 µM | [3] 11 µM | [17] 30.5 µM | [4] 28.4 µM | [5] 34.7 µM | [6] 40.6 µM | [7] 20.8 µM | [8] 16.5 µM | [9] 21.1 µM | [10] 8.47 µM | [11] 34.7 µM | [12] 51.3 µM | [13] 34 µM | [14] 13.4 µM

COc1ccc2c([nH]c3c(O)c(-c4c(C)cc5c([nH]c6c(CC=C(C)C)c(OC)ccc65)c4O)c(C)cc32)c1CC=C(C)C [BISMURRAYAFOLINE B]
inactive: [1] > 100 µM | [2] > 100 µM | [3] > 100 µM | [17] > 100 µM | [4] > 100 µM | [5] > 100 µM | [6] > 100 µM | [7] > 100 µM | [8] > 100 µM | [9] > 100 µM | [10] > 100 µM | [11] > 100 µM | [12] > 100 µM | [13] > 100 µM | [14] > 100 µM

Reference: ChEMBL document CHEMBL1201862, “PubChem BioAssay data set” (2004)
